Measured values taken from patent publication US20240277813A1, “TREATMENT OF OBESITY AND OBESITY-RELATED DISORDERS” (ANTAG THERAPEUTICS APS, priority 2021, published 2024).
“Also recorded” adds a separate entry of the source. *1 amine or outer side, *2 acyl side, *3 side chain or, on linkers, in order; H or OH if unused. Where a SMILES comes first, the peptide text is derived from it. Where no end group is shown, it is not given here. Side-chain parts run from the residue outwards. [ ]: non-standard residue; d: D form. The star is where a group is joined. C18 diacid = O=C(O)CCCCCCCCCCCCCCCCC(=O)*; C16 diacid = O=C(O)CCCCCCCCCCCCCCC(=O)*; γGlu = O=C(O)[C@H](CCC(=O)[*:2])N[*:1]; Glutaryl = O=C(CCCC(=O)[*:2])[*:1]; Nle = CCCC[C@H](N)C(=O)O; AEEA = NCCOCCOCC(=O)O; Aib = CC(C)(N)C(=O)O

Tests used:
high-fat mice = conditions: daily intraperitoneal injections, cited from earlier work; for glucose tolerance / glycaemic control: compared with high-fat controls
[1] = tested on: High fat diet (HFD) induced obese cynomolgus monkeys; assay: cynomolgus monkey efficacy study, 42 days daily SC treatment; assay type: in vivo, cynomolgus monkeys (Macaca fascicularis)
Procedure: Cynomolgus monkeys (Macaca fascicularis) were fed a HFD consisting of 50 g of KBI proprietary standard monkey formula feed in the morning 9:00 to 10:00 AM, 150 g apple in the afternoon 14:00 to 15:00 PM, and 100 g of KBI proprietary HFD in the evening 16:00 to 17:00 PM. Water was provided ad libitum. […] Values represent means±SEM, n=9-10 per group.
High fat diet (HFD) induced obese cynomolgus monkeys (Macaca fascicularis, male, >7.5 kg, fasting glucose<90 mg/dL, fasting insulin<60 μU/mL, >8 years of age) were obtained from KBI's stock colony. Lighting in animal holding rooms was maintained on 12:12 hour light:dark cycle, and the ambient temperature and humidity range was set at 18-29 degrees C. and 30 to 90%, respectively. The monkeys were individually housed in cages arranged to allow visual and auditory contacts with conspecifics. The monkeys were provided with cage toys for environmental enrichment to ensure adequate welfare and psychological well-being.
8 days prior to the treatment phase, and KBI's proprietary HFD was provided adlibitum which is in contrast to the defined amount of 100 g that the monkeys were normally served. During the entire treatment phase (42 days) and washout period (14 days) monkeys were provided three meals per day consisting of 50 g of KBI proprietary standard monkey formula feed in the morning 9:00-10:00 AM, one regular apple (150 g) in the afternoon 14:00-15:00 PM, and ad libitum of KBI proprietary HFD in the evening 16:00-17:00 PM. Water was provided adlibitum.
The cynomolgus monkeys were acclimated/trained to experimental procedures for three weeks followed by one week with continued training and introduction of adlibitum HFD prior to start of treatment. The monkeys were randomly sorted into six separate dose groups with 10 animals each based on acclimation data sets.
Daily food intake measurements were recorded during the entire duration of the study from the acclimation period until the end of the washout period. After each feeding time, all of the remaining food was withdrawn and intake was determined by weighing the left-over food.
Body weights were measured every third to fourth day during the study period. The monkeys were non-sedated and were transferred into small transfer cages and transported to a weighing scale. The tare weights of the transfer cages were determined prior to weighing the monkeys inside the transfer cages. The monkeys were weighed twice inside the transfer cages and recordings were made to the nearest 0.1 kg.
Whole blood sample was collected from a peripheral vein after an overnight fast according to the specified time points and transferred directly into serum separation tubes (SST). Serum was separated by centrifugation at 2500×g for 10 min at 4° C. Insulin, CTX and PTH levels were analyzed using the Cobas e411 Immunology analyzer. Other parameters were analyzed using the Roche C311 or C501 biochemical analyzer.

[2] = in vivo
Text: During the treatment period all monkeys received daily SC injections after breakfast with the respective test substance for a total of 42 days. […] All treatment groups and the vehicle group received injection volumes based on individual body weights. After the 42 days of treatment, body weight, food intake, and blood/serum chemistries were monitored for an additional 14-day washout period. Blood collections and dosing occurred in conscious monkeys for the entire study.

[3] = tested on: mice on a fat-diet, or lean mice; conditions: cited from earlier work; for absolute body weight or cumulative food intake: chronic administration, compared with vehicle control
DPP-IV enzyme = DPP-IV enzyme (Homo sapiens, UniProt P27487); conditions: cited from earlier work
Sequence of DPP-IV enzyme (P27487 whole entry, species assumed): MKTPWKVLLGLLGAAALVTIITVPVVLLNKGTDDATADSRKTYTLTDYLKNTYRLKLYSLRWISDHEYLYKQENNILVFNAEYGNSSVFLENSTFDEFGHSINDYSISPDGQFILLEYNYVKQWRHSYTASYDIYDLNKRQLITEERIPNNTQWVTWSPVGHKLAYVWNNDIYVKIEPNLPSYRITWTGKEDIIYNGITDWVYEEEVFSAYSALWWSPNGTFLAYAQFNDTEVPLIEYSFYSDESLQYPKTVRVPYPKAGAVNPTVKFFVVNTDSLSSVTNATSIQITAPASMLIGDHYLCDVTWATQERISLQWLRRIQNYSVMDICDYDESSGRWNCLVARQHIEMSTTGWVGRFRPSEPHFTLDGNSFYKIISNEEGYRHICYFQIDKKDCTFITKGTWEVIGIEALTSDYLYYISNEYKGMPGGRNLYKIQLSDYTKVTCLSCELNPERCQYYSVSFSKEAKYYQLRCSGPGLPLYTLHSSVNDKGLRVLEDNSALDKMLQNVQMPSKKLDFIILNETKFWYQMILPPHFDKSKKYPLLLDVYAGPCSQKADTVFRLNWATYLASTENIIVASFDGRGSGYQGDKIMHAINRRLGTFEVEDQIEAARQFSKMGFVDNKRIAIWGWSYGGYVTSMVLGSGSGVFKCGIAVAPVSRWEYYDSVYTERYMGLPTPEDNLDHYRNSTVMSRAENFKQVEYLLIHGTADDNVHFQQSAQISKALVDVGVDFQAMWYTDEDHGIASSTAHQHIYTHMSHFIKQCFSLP

## (d-Ala8)GLP-1
high-fat mice
  glucose tolerance: significantly improved glucose tolerance
  glycaemic control: restored glycaemic control to normal levels
  food intake and body weights: not affected

## EGTFISEYSIAibLEKIKQQEFVEWLLAQKPSSGAPPPS-C16-diacid/18K (GIP(3-30)+Cex(31-39) [D9E;A13Aib;M14L;D15E;H18K;D21E;N24E]) (EGTFISEYSI[Aib]LEKIK(C16 diacid)QQEFVEWLLAQKPSSGAPPPS; ends and bridges not checked) [Compound 1]
[1]; 42 days treatment, placebo gained 9%
  body weight during the study period (in words): maintained body weight; also recorded: no change in weight
[1]; FIG. 1D
  fasting triglycerides (in words): reduced fasting triglycerides
[1]; at day 43, FIG. 1C, placebo 25.1
  average HOMA-IR (Homeostatic Model Assessment for Insulin Resistance): 13.0
[1]; from predose
  reduction in LDL-c (individual %-change from predose): 26%

## CCCC[C@H](NC(=O)C(C)(C)NC(=O)[C@@H](NC(=O)[C@H](CO)NC(=O)[C@H](Cc1ccc(O)cc1)NC(=O)[C@H](CCC(=O)O)NC(=O)[C@H](CO)NC(=O)[C@@H](NC(=O)[C@H](Cc1ccccc1)NC(=O)[C@@H](NC(=O)CNC(=O)CCCC(=O)O)[C@@H](C)O)[C@@H](C)CC)[C@@H](C)CC)C(=O)N[C@@H](CCC(=O)O)C(=O)N[C@@H](CCCCN)C(=O)N[C@H](C(=O)N[C@@H](CCCCNC(=O)COCCOCCNC(=O)COCCOCCNC(=O)CC[C@H](NC(=O)CCCCCCCCCCCCCCCCC(=O)O)C(=O)O)C(=O)N[C@@H](CCC(N)=O)C(=O)N[C@@H](CCC(N)=O)C(=O)N[C@@H](CCC(=O)O)C(=O)N[C@@H](Cc1ccccc1)C(=O)N[C@H](C(=O)N[C@@H](CCC(=O)O)C(=O)N[C@@H](Cc1c[nH]c2ccccc12)C(=O)N[C@@H](CC(C)C)C(=O)N[C@@H](CC(C)C)C(=O)N[C@@H](C)C(=O)N[C@@H](CCC(N)=O)C(=O)N[C@@H](CCCCN)C(=O)N1CCC[C@H]1C(=O)N[C@@H](CO)C(=O)N[C@@H](CO)C(=O)NCC(=O)N[C@@H](C)C(=O)N1CCC[C@H]1C(=O)N1CCC[C@H]1C(=O)N1CCC[C@H]1C(=O)N[C@@H](CO)C(=O)O)C(C)C)[C@@H](C)CC [Compound 2] (Glutaryl-GTFISEYSI[Aib][Nle]EKIK([AEEA-AEEA-γGlu-C18 diacid])QQEFVEWLLAQKPSSGAPPPS-OH)
[2]
  half life (in words): long half live

## mouse GIP(3-30)NH2 (EGTFISDYSIAMDKIRQQDFVNWLLAQR-NH2; UniProt P48756 46-73, looked up, fragment) [GIPA-1, GIPR antagonist GIP peptide of West et al. 2021]
[3]
  absolute body weight or cumulative food intake: no effect

## NaAc-K10[γEγE-C16]-Arg18-hGIP(5-42) [GIPA-2]
[3]
  absolute body weight or cumulative food intake: no effect
[3]; in mice
  GIPR antagonist potency in mice (comparison): more potent antagonist than GIPA-1
  glucose stimulated insulin secretion: inhibited glucose stimulated insulin secretion

## (Pro3)GIP
high-fat mice
  glucose tolerance: significantly improved glucose tolerance
  glycaemic control: restored glycaemic control to normal levels
  food intake and body weights: not affected

## GLP-1: 31-amino acid peptide derived from the proglucagon gene, secreted by intestinal L-cells
DPP-IV enzyme
  half-life: approximately 2 minutes
